Consider three compounds from patent US20190231686A1, “METHODS FOR TREATING CYSTIC FIBROSIS AND OTHER DISEASES AFFECTING MUCOSAL SURFACES” (priority 2016, published 2019).

Test [1] deals with mucoid CF clinical isolates of P. aeruginosa. The following applies: elevated CO2 concentrations; titration with bicarbonate.
For test [2], the system named is patients with cystic fibrosis. The following applies: single inhalation, CF patients; cited from earlier work.
Test [3] deals with P. aeruginosa.

`O=C(O)O` [bicarbonate]: the Alginate expression entry in test [1] is reported as “suppressed”. Turning to `N=C(N)NCCC[C@H](N)C(=O)O` [L-arginine], in test [2], the “Exhaled NO” value is reported as “significantly increased” and the FEV1 entry is “sustained improvement”. Turning to reduced glutathione [GSH], the “Ability of P. aeruginosa to utilize nitrate, nitrite or nitric oxide for respiration to grow” value in test [3] (low oxygen conditions such as within biofilm) is reported as “limits the ability of P. aeruginosa to utilize nitrate, nitrite or nitric oxide for respiration”. In test [3] (nitrite and nitric oxide in the presence of GSH), the “Aerobic growth of P. aeruginosa” value was “inhibit aerobic growth of P. aeruginosa”.
